Experimental data reported in the supplement of paper PMC6045584.
± gives the standard deviation of the averaged measurements.

Columns and labels:
[1] = compound: CCn1c(C(=O)N(C2CC2)C2CC2)cc2c3c(ncn3C)c(Nc3cc(C)n(C)n3)nc21; experiment: surviving fraction relative to DMSO-only wells; higher = less growth inhibition; details: exposure time: 5 days
Procedure, shortened: (§1)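 Viability was determined by CellTiter-Glo luminescence, expressed as surviving fraction normalised to the median of DMSO-only wells. The cells were log-phase tumour cell lines seeded at 250–500 per well in 384-well plates and, after 24 hours, exposed continuously for five days to inhibitors at 0.5, 1, 5, 10, 50, 100, 500 and 1000 nM. Three screens per line were run, keeping only lines with replicate Pearson r >0.7 and median Z' >0.3.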

FORETINIB = compound: COc1cc2c(Oc3ccc(NC(=O)C4(C(=O)Nc5ccc(F)cc5)CC4)cc3F)ccnc2cc1OCCCN1CCOCC1 [FORETINIB]; experiment: as above; details: exposure time: 5 days
Procedure, shortened: as §1

In the case of U2OS BONE, the surviving fraction ([1]; 0.5 nM) is reported as 0.998 ± 0.025, the surviving fraction ([1]; 1 nM) is reported as 1.03 ± 0.029 and the surviving fraction ([1]; 5 nM) is reported as 1.05 ± 0.023. It also gave a surviving fraction ([1]; 10 nM) of 1.02 ± 0.022, a surviving fraction ([1]; 50 nM) of 1.07 ± 0.053 and a surviving fraction ([1]; 100 nM) of 1.077 ± 0.0072. It also gave a surviving fraction ([1]; 500 nM) of 1.03 ± 0.011, a surviving fraction ([1]; 1000 nM) of 1.05 ± 0.013 and a surviving fraction (FORETINIB; 0.5 nM) of 1.03 ± 0.018. For the same test system, the surviving fraction (FORETINIB; 1 nM) was 1 ± 0.021, the surviving fraction (FORETINIB; 5 nM) was 1.04 ± 0.034 and the surviving fraction (FORETINIB; 10 nM) was 1.01 ± 0.037. The surviving fraction (FORETINIB; 50 nM) was 1.03 ± 0.059, the surviving fraction (FORETINIB; 100 nM) was 0.958 ± 0.03 and the surviving fraction (FORETINIB; 500 nM) was 0.558 ± 0.028. The surviving fraction (FORETINIB; 1000 nM) was 0.344 ± 0.024.

VCAP PROSTATE showed a surviving fraction ([1]; 0.5 nM) of 0.98 ± 0.059, a surviving fraction ([1]; 1 nM) of 1.05 ± 0.12 and a surviving fraction ([1]; 5 nM) of 1.15 ± 0.09. The surviving fraction ([1]; 10 nM) was 1.03 ± 0.051, the surviving fraction ([1]; 50 nM) was 1.11 ± 0.11 and the surviving fraction ([1]; 100 nM) was 1.13 ± 0.18. The surviving fraction ([1]; 500 nM) was 1.06 ± 0.078, the surviving fraction ([1]; 1000 nM) was 1.06 ± 0.092 and the surviving fraction (FORETINIB; 0.5 nM) was 0.975 ± 0.059. The surviving fraction (FORETINIB; 1 nM) was 0.96 ± 0.13, the surviving fraction (FORETINIB; 5 nM) was 1.12 ± 0.094 and the surviving fraction (FORETINIB; 10 nM) was 1.03 ± 0.082. For the same test system, the surviving fraction (FORETINIB; 50 nM) was 1.11 ± 0.1, the surviving fraction (FORETINIB; 100 nM) was 1.08 ± 0.2 and the surviving fraction (FORETINIB; 500 nM) was 0.547 ± 0.09. The surviving fraction (FORETINIB; 1000 nM) was 0.4 ± 0.044.

VP229 BREAST showed a surviving fraction ([1]; 0.5 nM) of 0.983 ± 0.11, a surviving fraction ([1]; 1 nM) of 1.04 ± 0.14 and a surviving fraction ([1]; 5 nM) of 1.02 ± 0.21. The surviving fraction ([1]; 10 nM) was 1.06 ± 0.14, the surviving fraction ([1]; 50 nM) was 1.15 ± 0.13 and the surviving fraction ([1]; 100 nM) was 1.09 ± 0.12. It also gave a surviving fraction ([1]; 500 nM) of 1.23 ± 0.1, a surviving fraction ([1]; 1000 nM) of 1.14 ± 0.034 and a surviving fraction (FORETINIB; 0.5 nM) of 1.31 ± 0.085. It also gave a surviving fraction (FORETINIB; 1 nM) of 1.09 ± 0.11, a surviving fraction (FORETINIB; 5 nM) of 1.13 ± 0.14 and a surviving fraction (FORETINIB; 10 nM) of 1.07 ± 0.1. The surviving fraction (FORETINIB; 50 nM) was 1.14 ± 0.11, the surviving fraction (FORETINIB; 100 nM) was 1.05 ± 0.15 and the surviving fraction (FORETINIB; 500 nM) was 0.808 ± 0.14. It also gave a surviving fraction (FORETINIB; 1000 nM) of 0.616 ± 0.15.

YAMATO SYNOVIAL showed a surviving fraction ([1]; 0.5 nM) of 1.22 ± 0.059, a surviving fraction ([1]; 1 nM) of 1.21 ± 0.076 and a surviving fraction ([1]; 5 nM) of 1.234 ± 0.012. For the same test system, the surviving fraction ([1]; 10 nM) was 1.19 ± 0.027, the surviving fraction ([1]; 50 nM) was 1.4 ± 0.081 and the surviving fraction ([1]; 100 nM) was 1.32 ± 0.15. It also gave a surviving fraction ([1]; 500 nM) of 1.327 ± 0.0092, a surviving fraction ([1]; 1000 nM) of 1.14 ± 0.023 and a surviving fraction (FORETINIB; 0.5 nM) of 0.998 ± 0.072. The surviving fraction (FORETINIB; 1 nM) was 1.16 ± 0.098, the surviving fraction (FORETINIB; 5 nM) was 1 ± 0.12 and the surviving fraction (FORETINIB; 10 nM) was 1.02 ± 0.078. For the same test system, the surviving fraction (FORETINIB; 50 nM) was 0.585 ± 0.025, the surviving fraction (FORETINIB; 100 nM) was 0.369 ± 0.035 and the surviving fraction (FORETINIB; 500 nM) was 0.295 ± 0.017. For the same test system, the surviving fraction (FORETINIB; 1000 nM) was 0.272 ± 0.018.

In the case of ZR751 BREAST, the surviving fraction ([1]; 0.5 nM) is reported as 0.982 ± 0.19, the surviving fraction ([1]; 1 nM) is reported as 0.864 ± 0.032 and the surviving fraction ([1]; 5 nM) is reported as 0.877 ± 0.11. It also gave a surviving fraction ([1]; 10 nM) of 0.99 ± 0.057, a surviving fraction ([1]; 50 nM) of 0.894 ± 0.095 and a surviving fraction ([1]; 100 nM) of 0.8 ± 0.031. It also gave a surviving fraction ([1]; 500 nM) of 0.812 ± 0.027, a surviving fraction ([1]; 1000 nM) of 0.772 ± 0.12 and a surviving fraction (FORETINIB; 0.5 nM) of 1.04 ± 0.21. It also gave a surviving fraction (FORETINIB; 1 nM) of 1.12 ± 0.12, a surviving fraction (FORETINIB; 5 nM) of 0.969 ± 0.1 and a surviving fraction (FORETINIB; 10 nM) of 1.06 ± 0.16. For the same test system, the surviving fraction (FORETINIB; 50 nM) was 0.963 ± 0.06, the surviving fraction (FORETINIB; 100 nM) was 1.07 ± 0.062 and the surviving fraction (FORETINIB; 500 nM) was 0.902 ± 0.062. The surviving fraction (FORETINIB; 1000 nM) was 0.783 ± 0.1.
